Usually IC50 stands for the point on the concentration scale where inhibition reaches its midpoint.

Where a name gives a salt, the structure may show the parent alone.

Sequence of PARP-1 (poly[ADP-ribose] polymerase 1) enzyme (P09874 whole entry): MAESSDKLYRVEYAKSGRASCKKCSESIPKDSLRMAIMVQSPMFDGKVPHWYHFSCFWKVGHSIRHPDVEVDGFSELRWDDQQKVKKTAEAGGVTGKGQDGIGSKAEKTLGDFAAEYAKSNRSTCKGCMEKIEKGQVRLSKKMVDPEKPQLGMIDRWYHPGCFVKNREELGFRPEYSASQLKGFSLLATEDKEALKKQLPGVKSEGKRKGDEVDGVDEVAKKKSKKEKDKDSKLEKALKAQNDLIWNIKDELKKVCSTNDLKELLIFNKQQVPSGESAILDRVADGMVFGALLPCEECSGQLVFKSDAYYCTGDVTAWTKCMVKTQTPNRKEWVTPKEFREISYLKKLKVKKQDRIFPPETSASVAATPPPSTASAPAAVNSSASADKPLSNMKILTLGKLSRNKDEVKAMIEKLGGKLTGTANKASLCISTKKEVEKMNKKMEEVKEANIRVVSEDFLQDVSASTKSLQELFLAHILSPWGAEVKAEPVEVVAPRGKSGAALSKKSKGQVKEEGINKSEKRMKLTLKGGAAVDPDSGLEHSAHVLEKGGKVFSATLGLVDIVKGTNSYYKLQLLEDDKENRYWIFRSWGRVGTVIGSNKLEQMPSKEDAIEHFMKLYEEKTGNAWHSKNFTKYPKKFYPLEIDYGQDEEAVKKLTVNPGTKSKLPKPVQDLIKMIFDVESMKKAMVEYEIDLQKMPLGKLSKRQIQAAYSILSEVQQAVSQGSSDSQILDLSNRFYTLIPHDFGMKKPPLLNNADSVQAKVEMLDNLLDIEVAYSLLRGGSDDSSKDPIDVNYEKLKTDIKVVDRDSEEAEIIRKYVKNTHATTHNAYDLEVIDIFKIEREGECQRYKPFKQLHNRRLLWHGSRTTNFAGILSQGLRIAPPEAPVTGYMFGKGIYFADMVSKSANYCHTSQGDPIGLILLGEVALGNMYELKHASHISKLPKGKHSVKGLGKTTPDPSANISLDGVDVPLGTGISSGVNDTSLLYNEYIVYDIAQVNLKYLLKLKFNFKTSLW

The target of one test is PARP-1 (poly[ADP-ribose] polymerase 1) enzyme (Homo sapiens (Human), UniProt P09874). Briefly: PARP-1 (poly[ADP-ribose] polymerase 1) enzyme inhibitory ability, Trevigen assay kit. The settings on record: 1 nM compound; read-out: PAR P-1 Inhibitory ability at 1 nM. Format: biochemical. The protocol:
In order to evaluate the PARP-1 (poly[ADP-ribose] polymerase 1) enzyme inhibitory ability of the compounds according to the present invention, an experiment was conducted as follows.
Specifically, in order to evaluate the PARP-1 (poly[ADP-ribose] polymerase 1) enzyme inhibitory ability of the compounds of Examples 1 to 276 according to the present invention, the PARP-1 (poly[ADP-ribose] polymerase 1) activity was investigated in the following manner using an assay kit purchased from Trevigen, Inc. (Catalog number: 4677-096-K). 50 μL of 1×PARP buffer (provided by Trevigen's kit) was dispensed into a 96-well plate coated with histones per each well, and then rehydrated for 30 minutes. After removing the 1×PARP buffer present in the well, PARP-1 (poly[ADP-ribose] polymerase 1) enzyme (0.5 unit/well) and 1 μM concentration or various concentrations of the compounds of Example 1 to 276 were added at room temperature and reacted for 10 minutes. Thereafter, each well was treated with 25 μL of 1×PARP cocktail (biotinylated NAD, activated DNA, provided by Trevigen's kit), and then reacted at room temperature for 1 hour. After the reaction was completed, each well was washed twice with PBS (7.5 mM Na2HPO4, 2.5 mM NaH2PO4, 145 mM NaCl) containing 0.1% triton X-100, and washed twice with PBS. Then, 50 μL of strep-HRP (streptavidin-linked peroxidase) was added and reacted at room temperature for 1 hour, and then washed twice with PBS containing 0.1% triton X-100, and washed twice with PBS. After removing all PBS, 50 μL of TACS-sapphire, a substrate, was added, and reacted at room temperature for 15 minutes while blocking the light. After the reaction was terminated by treatment with 50 μL of 5% phosphoric acid to each well, the absorbance was measured at 450 nm using a microplate reader Victor3 from PerkinElmer, Inc. to quantify the value.
In the case of `N#Cc1ccc(N2CC3CCC(C2)N3CCCc2cc3ncccc3c(=O)[nH]2)cc1` [Example 225, 4-(8-(3-(5-oxo-5,6-dihydro-1,6-naphthyridin-7-yl)propyl)-3,8-diazabicyclo[3.2.1]octan-3-yl)benzonitrile], the inhibition at 0.001 µM is above 80%.

Regarding `N#Cc1ccc(C2=CCN(CCCc3cc4ncccc4c(=O)[nH]3)CC2)nc1` [Example 235, 1′-(3-(5-oxo-5,6-dihydro-1,6-naphthyridin-7-yl)propyl)-1′,2′,3′,6′-tetrahydro-[2,4′-bipyridine]-5-carbonitrile], the inhibition at 0.001 µM was below 50%.

For `Cc1ccc(F)c2c(=O)[nH]c(CCC(=O)N3CCC(Nc4ccc(C#N)cc4)CC3)cc12` [Example 259, 4-((1-(3-(8-fluoro-5-methyl-1-oxo-1,2-dihydroisoquinolin-3-yl)propanoyl)piperidin-4-yl)amino)benzonitrile], the inhibition at 0.001 µM was below 50%.

As for `Cc1cc(F)cc2c(=O)[nH]c(CCC(=O)N3CC=C(c4ccnc(F)c4)CC3)cc12` [Example 168, 7-fluoro-3-(3-(2′-fluoro-3,6-dihydro-[4,4′-bipyridine]-1(2H)-yl)-3-oxopropyl)-5-methylisoquinolin-1(2H)-one], the inhibition at 0.001 µM was below 50%.

In the case of `Cc1ccc(F)c2c(=O)[nH]c(CCC(=O)N3CCN(C(=O)C(C)C)CC3)cc12` [Example 187, 8-fluoro-3-(3-(4-isobutyrylpiperazin-1-yl)-3-oxopropyl)-5-methylisoquinolin-1(2H)-one], the inhibition at 0.001 µM is below 50%.

Turning to `N#Cc1ccccc1N1CCN(C(=O)CCc2cc3cccc(F)c3c(=O)[nH]2)CC1` [Example 74, 2-(4-(3-(8-fluoro-1-oxo-1,2-dihydroisoquinolin-3-yl)propanoyl)piperazin-1-yl)benzonitrile], the inhibition at 0.001 µM was below 50%.

As for `N#Cc1ccc(C2=CCN(CCCc3cc4cccc(F)c4c(=O)[nH]3)CC2)cc1` [Example 41, 4-(1-(3-(8-fluoro-1-oxo-1,2-dihydroisoquinolin-3-yl)propyl)-1,2,3,6-tetrahydropyridin-4-yl)benzonitrile], the inhibition at 0.001 µM fell in the range of 50 to 80%.

With `N#Cc1cc(F)ccc1N1CCN(C(=O)CCc2cc3ccc(F)cc3c(=O)[nH]2)CC1` [Example 110, 5-fluoro-2-(4-(3-(7-fluoro-1-oxo-1,2-dihydroisoquinolin-3-yl)propanoyl)piperazin-1-yl)benzonitrile], the inhibition at 0.001 µM is below 50%.

As to `Cc1ccc(F)c2c(=O)[nH]c(CCCN3CCN(C(=O)c4ccc(F)cc4)CC3)cc12` [Example 67, 8-fluoro-3-(3-(4-(4-fluorobenzoyl)piperazin-1-yl)propyl)-5-methylisoquinolin-1(2H)-one], the inhibition at 0.001 µM is below 50%.

For the molecule `Cc1cc(F)cc2c(=O)[nH]c(CCC(=O)N3C4CCC3CN(c3ccc(Cl)cc3)C4)cc12` [Example 216, 3-(3-(3-(4-chlorophenyl)-3,8-diazabicyclo[3.2.1]octan-8-yl)-3-oxopropyl)-7-fluoro-5-methylisoquinolin-1(2H)-one], the inhibition at 0.001 µM is below 50%.

For the molecule `Cc1ccc(F)c2c(=O)[nH]c(CCCN3C4CCC3CN(c3ccc(C#N)nc3)C4)cc12` [Example 200, 5-(8-(3-(8-fluoro-5-methyl-1-oxo-1,2-dihydroisoquinolin-3-yl)propyl)-3,8-diazabicyclo[3.2.1]octan-3-yl)picolinonitrile], the inhibition at 0.001 µM was in the range of 50 to 80%.

For the molecule `Cc1ccc(F)c2c(=O)[nH]c(CCCN3CC=C(c4ccc(C#N)cc4)CC3)cc12` [Example 54, 4-(1-(3-(8-fluoro-5-methyl-1-oxo-1,2-dihydroisoquinolin-3-yl)propyl)-1,2,3,6-tetrahydropyridin-4-yl)benzonitrile], the inhibition at 0.001 µM was below 50%.

As for `N#Cc1ccc(N2CCN(C(=O)CCc3cc4ccc(F)cc4c(=O)[nH]3)CC2)nc1` [Example 99, 6-(4-(3-(7-fluoro-1-oxo-1,2-dihydroisoquinolin-3-yl)propanoyl)piperazin-1-yl)nicotinonitrile], the inhibition at 0.001 µM is below 50%.

Consider `O=C(CCc1cc2ccc(F)cc2c(=O)[nH]1)N1CCN(C(=O)C2CCCCC2)CC1` [Example 172, 3-(3-(4-(cyclohexanecarbonyl)piperazin-1-yl)-3-oxopropyl)-7-fluoroisoquinolin-1(2H)-one], for which the inhibition at 0.001 µM is below 50%.

For the molecule `Cc1ccc(F)c2c(=O)[nH]c(CCC(=O)N3CC=C(c4ccc(F)nc4)CC3)cc12` [Example 129], the inhibition at 0.001 µM was below 50%.

In the case of `O=C(CCc1cc2cccc(F)c2c(=O)[nH]1)N1CCN(C(=O)C2CCC2)CC1` [Example 178, 3-(3-(4-(cyclobutanecarbonyl)piperazin-1-yl)-3-oxopropyl)-8-fluoroisoquinolin-1(2H)-one], the inhibition at 0.001 µM was below 50%.

On to `COC(=O)c1ccc(N2CCN(C(=O)CCc3cc4c(C)ccc(F)c4c(=O)[nH]3)CC2)cc1` [Example 146, methyl 4-(4-(3-(8-fluoro-5-methyl-1-oxo-1,2-dihydroisoquinolin-3-yl)propanoyl)piperazin-1-yl)benzoate], for which the inhibition at 0.001 µM was below 50%.

Consider `O=C(CCc1cc2cccc(F)c2c(=O)[nH]1)N1CCN(C(=O)C2CCCO2)CC1` (stereo not shown) [Example 190, 8-fluoro-3-(3-oxo-3-(4-(tetrahydrofuran-2-carbonyl)piperazin-1-yl)propyl)isoquinolin-1(2H)-one], for which the inhibition at 0.001 µM is below 50%.

Regarding `N#Cc1ccc(N2CCN(CCCc3cc4cccc(F)c4c(=O)[nH]3)CC2)cc1` [Example 6, 4-(4-(3-(8-fluoro-1-oxo-1,2-dihydroisoquinolin-3-yl)propyl)piperazin-1-yl)benzonitrile hydrochloride], the inhibition at 0.001 µM was in the range of 50 to 80%.

Regarding `O=c1[nH]c(CCCN2CC=C(c3ccc(C(F)(F)F)cc3)CC2)cc2cccc(F)c12` [Example 45, 8-fluoro-3-(3-(4-(4-(trifluoromethyl)phenyl)-3,6-dihydropyridin-1(2H)-yl)propyl)isoquinolin-1(2H)-one], the inhibition at 0.001 µM fell in the range of 50 to 80%.

Take `Cc1ccc(F)c2c(=O)[nH]c(CCC(=O)N3CCN(C(=O)C4CCCC4)CC3)cc12` [Example 175, 3-(3-(4-(cyclopentanecarbonyl)piperazin-1-yl)-3-oxopropyl)-8-fluoro-5-methylisoquinolin-1(2H)-one]: the inhibition at 0.001 µM was below 50%.

For the molecule `Cc1cc(F)cc2c(=O)[nH]c(CCC(=O)N3CC=C(c4ccc(F)cc4)CC3)cc12` [Example 150, 7-fluoro-3-(3-(4-(4-fluorophenyl)-3,6-dihydropyridin-1(2H)-yl)-3-oxopropyl)-5-methylisoquinolin-1(2H)-one], the inhibition at 0.001 µM was below 50%.

In the case of `CC(=O)Nc1cccc(N2CCN(CCCc3cc4ccc(F)cc4c(=O)[nH]3)CC2)c1` [Example 20, N-(3-(4-(3-(7-fluoro-1-oxo-1,2-dihydroisoquinolin-3-yl)propyl)piperazin-1-yl)phenyl)acetamide], the inhibition at 0.001 µM is below 50%.

Consider `O=c1[nH]c(CCCN2CCN(c3ccc(F)cc3)CC2)cc2ncccc12` [Example 223, 7-(3-(4-(4-fluorophenyl)piperazin-1-yl)propyl)-1,6-naphthyridin-5(6H)-one], for which the inhibition at 0.001 µM was below 50%.

Still in this test, the particulars now being: PARP-1 enzyme activity.
With `Cc1ccc(F)c2c(=O)[nH]c(CCCN3C4CCC3CN(c3ccc(C#N)nc3)C4)cc12` [Example 200, 5-(8-(3-(8-fluoro-5-methyl-1-oxo-1,2-dihydroisoquinolin-3-yl)propyl)-3,8-diazabicyclo[3.2.1]octan-3-yl)picolinonitrile], the IC50 is 1.24 nM.

Regarding `Cc1ccc(F)c2c(=O)[nH]c(CCCN3CC=C(c4ccc(C#N)cc4)CC3)cc12` [Example 54, 4-(1-(3-(8-fluoro-5-methyl-1-oxo-1,2-dihydroisoquinolin-3-yl)propyl)-1,2,3,6-tetrahydropyridin-4-yl)benzonitrile], it took 1.42 nM to reach half-maximal inhibition (IC50).

`N#Cc1ccc(N2CCN(C(=O)CCc3cc4ccc(F)cc4c(=O)[nH]3)CC2)nc1` [Example 99, 6-(4-(3-(7-fluoro-1-oxo-1,2-dihydroisoquinolin-3-yl)propanoyl)piperazin-1-yl)nicotinonitrile] registered an IC50 of 1.05 nM.

The same test, now with this note: PARP-1 enzyme activity; hydrochloride.
As for `N#Cc1ccc(N2CCN(CCCc3cc4cccc(F)c4c(=O)[nH]3)CC2)cc1` [Example 6, 4-(4-(3-(8-fluoro-1-oxo-1,2-dihydroisoquinolin-3-yl)propyl)piperazin-1-yl)benzonitrile hydrochloride], the IC50 amounted to 0.41 nM.

For the origin of these results see patent US12459899B2, “Isoquinolinone derivatives, method for preparing the same, and pharmaceutical composition for preventing or treating poly(ADP-ribose) polymerase-1-related diseases, comprising the same as active ingredient” (DIGMBIO. INC., priority 2019, dated 2025).
